In patent US11045487B2, “Pharmaceutical preparation treating bone lesions caused by malignant neoplasms” (priority 2016, dated 2021):

Columns and labels:
[1] = Thermal behaviour of solutions for lyophilization (DSC); format: physicochemical
Description: Differential Scanning calorimetry (DSC) was used to identify the lowest possible transient temperature in the solution throughout the entire lyophilization process, including freezing and dehydration. For the solutions of most pharmaceutical products, this parameter is represented by the glass transition temperature or “Tgt”. All components and their amounts in the solution contribute to the final value of Tgt. This temperature is usually several degrees below the temperature at which the sintered material can crumble during the lyophilization process (collapse temperature, Tc). Without determining the collapse temperature by such methods as cryomicroscopy, the glass transition temperature can be used to select the primary drying temperature. Until the primary drying is completed, the initial drying temperature should be set in such a manner that there are no vials for which the glass transition temperature has been exceeded (or Tc, if known). Otherwise, the structure of the sintered material may get broken. On the one hand, the lyophilization temperature should be close to Tgt, so that the process proceeds efficiently, and on the other hand, it cannot exceed Tgt due to process requirements and qualitative product parameters. Thus, the values of collapse and glass transition temperature are important parameters for calculating safe upper temperature limits, which can be used for lyophilization. Based on the proposed filling of the vials with the drug (100 mg of active ingredient per vial), potential solutions for filling were prepared. The excipients included sterile water for injection (SWFI), 50 mM succinate and tartrate buffers at pH 5, MgCl2, sulfobutylether β-cyclodextrin (SBEβCD), mannitol and dextran 40. In addition, for solutions containing mannitol, a study of the effect of the annealing stage (the lyophilization process stage when the samples are kept at a certain temperature below the freezing point for a certain period of time) on the improvement the crystallinity of the finished product was performed. […]

[2] = tested on: bone lesions caused by malignant neoplasms; assay: Phase I open non-randomized multicenter clinical study; format: in vivo; details: patients; intravenous infusion daily for 5 days, break of 23 days; on free acid basis
Description: To assess the efficacy and safety of the novel medicinal drug, clinical studies of phase I were conducted according to “Open non-randomized multicenter clinical study” protocol.
All patients received a single dosing with the study drug in a dose corresponding to the dose level of the cohort with the subsequent weekly follow-up period and at least 2 cycles of multiple dosing. The cycle consisted of daily administration (o.d.) of the drug for 5 days, followed by a break of 23 days. […] According to protocol criteria, the maximum tolerated dose is considered a dose 1 level lower than DLT (5 mg/kg).

[3] = Succinate buffer, MBC-11 25 mg/mL, MgCl2, 86.5 mmol/L
[4] = Tartrate buffer, MBC-11 25 mg/mL, MgCl2, 86.5 mmol/L

CC(O)(P(=O)(O)O)P(=O)(O)OP(=O)(O)OC[C@H]1O[C@@H](n2ccc(N)nc2=O)[C@@H](O)[C@@H]1O.[Na].[Na].[Na] (stereo partly drawn) [MBC-11, Trisodium salt of 1-((((((2R,3S,4S,5R)-5-(4-amino-2-oxopyrimidine-1(2H)-yl)-3,4-dihydroxytetrahydrofuran-2-yl)methoxy))(hydroxy)phosphoryloxy)(hydroxy)phosphoryl)-1-hydroxyethylphosphonic acid]
Thermal effect (event): endotherm ([1]; SWFI, MBC-11 25 mg/mL, MgCl2, 43.25 mmol/L): −21 °C (endotherm)
Thermal effect (event): possible crystallization ([1]; SWFI, MBC-11 25 mg/mL, MgCl2, 43.25 mmol/L + Mannitol, 25 mg/mL): −27 °C
Thermal effect (event): specific endothermicity (none crystallization after temperature processing) ([1]; SWFI, MBC-11 25 mg/mL, MgCl2, 43.25 mmol/L + Mannitol, 25 mg/mL, Annealing at −20° C.): −22 °C
Thermal effect (event): weak endothermicity (none crystallization after annealing) ([1]; SWFI, MBC-11 25 mg/mL, MgCl2, 43.25 mmol/L + Mannitol, 25 mg/mL, Annealing at −24° C.): −22 °C
Thermal effect (event): endothermicity ([1]; SWFI, MBC-11 25 mg/mL, MgCl2, 86.5 mmol/L): −26 °C (endothermicity)
Thermal effect (event) ([1]; SWFI, MBC-11 25 mg/mL, MgCl2, 86.5 mmol/L + Mannitol, 25 mg/mL): Tgt/endothermicity before
Thermal effect (event): endothermicity ([1]; SWFI, MBC-11 50 mg/mL, MgCl2, 86.5 mmol/L): −21 °C (endothermicity)
Thermal effect (event) ([1]; SWFI, MBC-11 50 mg/mL, MgCl2, 86.5 mmol/L + Mannitol, 25 mg/mL): Tgt/endothermicity before
Thermal effect (event): endothermicity ([1]; SWFI, MBC-11 50 mg/mL, MgCl2, 173 mmol/L): −26 °C (endothermicity)
Thermal effect (event) ([1]; SWFI, MBC-11 50 mg/mL, MgCl2, 173 mmol/L + Mannitol, 25 mg/mL): Tgt/endothermicity before
Thermal effect (event): endothermicity ([1]; SWFI, MBC-11 100 mg/mL, MgCl2, 173 mmol/L): −22 °C (endothermicity)
Thermal effect (event): endothermicity ([1]; SWFI, MBC-11 100 mg/mL, MgCl2, 350 mmol/L): −26 °C (endothermicity)
Thermal effect (event): crystallization [1, 3]: −34 °C (crystallization)
Thermal effect (event): endothermicity [1, 3]: −26 °C (endothermicity)
Thermal effect (event) ([1]; Succinate buffer, MBC-11 25 mg/mL, MgCl2, 86.5 mmol/L + Mannitol, 25 mg/mL): Tgt/endothermicity before
Thermal effect (event): crystallization [1, 4]: −30 °C (crystallization)
Thermal effect (event): endothermicity [1, 4]: −22 °C (endothermicity)
maximum tolerated daily dose [2]: 5 mg/kg
